Assay results from US10478431B2, “Methods for treating a cytomegalovirus infection” (priority 2014, dated 2019).
“Also recorded” adds a separate entry of the source. Where a name gives a salt, the structure may show the parent alone.

Key:
[1] = system: CMV AD169 (a laboratory strain of HCMV); assay: Human CMV viral replication kinetics in MRCS cells (TCID50, PFU/ml); assay type: cell-based, human CMV (hCMV)
Method: MRCS cells were seeded into cell culture plates and maintained for 1 to 2 days until cells reached confluency at ˜5×10^4 cells per well. The monolayers were then infected with recombinant virus human CMV IE2-YFP or CMV-GFP as a control. HCMV IE2-YFP was used as the control virus for replication kinetics with the Δcrs IE2-YFP recombinant virus. Cells were infected at a multiplicity of infection (MOI) of 1, 0.2, or 0.1, as indicated. Inoculum was prepared using virus stocks diluted in culture media, and adsorbed onto cells in a volume of 200 μl for one hour at 37° C. in a humidified CO2 incubator. Inoculum was then removed and replaced with one mL of fresh media. The amount of infectious virus to prepare inoculum was based on plaque assay titrations (Bolovan-Fritts and Wiedeman, 2001) of virus stocks and is shown as time point 0 in each figure. For each time point three separate sample wells were collected. Infectious cell-free virus was collected by harvesting medium from infected culture wells at indicated time points and stored at −80° C. To measure replication, samples were thawed and prepared as a 10-fold serial dilution series in culture media, then analyzed by TCID50. The results were then converted to plaque-forming units per ml (PFU/ml). Error ranges were calculated using standard deviation.

[2] = system: Rhesus CMV (RhCMV); assay: Rhesus CMV viral replication kinetics on rhesus fibroblast cells; assay type: cell-based, rhesus monkey
Method: Murine CMV (MCMV) replication kinetics were performed in BALB/c mice using the Smith strain of MCMV as previously described (Orr et al., 2010) and on NIH 3T3 cells using same methods as for HCMV. Rhesus CMV (RhCMV) viral replication kinetics were performed on rhesus fibroblast cells as described in (Lilja et al., 2008).

[3] = system: IE2; assay: Quantitative Western blot of IE2; assay type: cell-based, human CMV (hCMV); details: with increasing Hoechst 33258 exposure
Method: Cell monolayers were rinsed in PBS buffer, and cells from each well were scraped into 50 μl A of RIPA buffer and stored at −80° C. For analysis, samples were thawed and quantitated for total protein content using a modified Lowry assay (BioRad DC protein assay kit). Equivalent amounts of total protein (10 μg) were added to appropriate volumes of 4× sample loading buffer (50 mM Tris-HCl pH 6.8, 2% sodium docecyl sulfate (SDS), 10% glycerol, 1% beta-mercaptoethanol, 12.5 mM EDTA, and 0.02% bromophenol blue) and heated at 95° C. for 5 minutes. Protein samples were loaded and separated on precast SDS polyacrylamide gel electrophoresis (PAGE) 10% or 7.5% bisacrylamide gels (BioRad). Protein transfer and blot preparation were handled as previously described (Bolovan-Fritts et al., 2004). For detection of protein bands, primary mouse monoclonal antibody against a shared epitope present in IE1 and IE2 at 1:100 (MAB810, Millipore). Beta tubulin was used as a normalization marker, and detected by a primary rabbit anti-beta tubulin antibody (926-42211, LiCor) used at a dilution of 1:2000. The secondary antibody for IE2 detection used was a donkey anti-mouse conjugated to IR dye 800CW (926-32212, LiCor) at a dilution of 1:20,000. […] Blots were scanned using a LiCor Odyssey Infrared Imaging system and software analysis for quantitation.

CN1CCN(c2ccc3[nH]c(-c4ccc5[nH]c(-c6ccc(O)cc6)nc5c4)nc3c2)CC1 [Hoechst 33258, 2′-(4-hydroxyphenyl)-5-(4-methyl-1-piperazinyl)-2,5′-bi-1H-benzimidazole trihydrochloride hydrate]
reduction of hCMV replication ([1]; FIG. 10): more than 100 fold | HCMV viral replication ([1]; MRCS cells, CMV AD169, 5, 10 or 20 μM Hoechst 33258, data in PFU/ml, FIG. 3, trihydrochloride hydrate): inhibited HCMV viral replication; also recorded: significantly reduced HCMV replication | cytopathic effect (CPE) and plaque formation ([2]; DIC imaging, rhCMV-infected cells): reduced cytopathic effect (CPE) and plaque formation | rhCMV replication ([2]; FIG. 11): inhibited rhCMV replication to an extent similar to Hoechst 33258 inhibition of hCMV replication | inhibitory effect on rhCMV replication at various MOI and after multiple rounds of replication ([2]; FIG. 12): remains both at high MOI and also after multiple rounds of replication | IE2 levels (quantitative Western blot) [3]: increase
